Starred links: 1 amine or outer side, 2 acyl side, 3 side chain; linkers in the order of their positions; H or OH if unused. Positions of bridges follow the written chain, without caps; N, C: chain ends. Residues, ends and D or L forms follow the SMILES beside them. *: point of attachment. C20 diacid = O=C(O)CCCCCCCCCCCCCCCCCCC(=O)*; γGlu = O=C(O)[C@H](CCC(=O)[*:2])N[*:1]
Columns and labels:
[1] = Assay (I) efficacy testing on appetite (food intake), ad libitum fed rat model; type: in vivo, Sprague Dawley (SD) rats; conditions: 3 nmol/kg
Summary of the method: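 Single ip, po or sc dosing (0.01-3 mg/kg, by body weight) at the start of the dark phase, in individually housed Sprague Dawley rats of 200-250 g with free food and water. Intake was logged per rat each hour to 7 h, then at 24 h (occasionally 48 h), against a vehicle group; outliers removed by Grubbs test.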

[2] = Assay (III) ThT fibrillation assay for physical stability; type: physicochemical; conditions: for Th T pH 4.0 lag time (h): 37° C., orbital shaking 960 rpm; for ThT pH 4.0 lag time: Table 9
Summary of the method: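 Freshly prepared samples, pH adjusted with NaOH and HClO4 or HCl, received ThT at 1 μM final and were incubated at 37° C with orbital shaking at 960 rpm. Fluorescence (ex 444 nm, em 485 nm) was read every 20 minutes; […], with polypeptide concentration by reverse HPLC before and after.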

SMILES	Food intake reduction 0-24 h 3 nmol/kg (%) [1] [%]	Food intake reduction 24-48 h 3 nmol/kg (%) [1] [%]	Th T pH 4.0 lag time (h) [2] [h]	ThT pH 4.0 lag time [2] [hr]
CC[C@H](C)[C@H](NC(=O)[C@@H]1CCCN1C(=O)CNC(=O)[C@H](Cc1ccccc1)NC(=O)[C@H](CC(N)=O)NC(=O)[C@H](CC(N)=O)NC(=O)[C@H](CO)NC(=O)[C@H](CO)NC(=O)[C@H](Cc1c[nH]cn1)NC(=O)[C@H](Cc1c[nH]cn1)NC(=O)[C@H](CC(C)C)NC(=O)[C@H](Cc1ccccc1)NC(=O)[C@H](CCC(=O)O)NC(=O)[C@H](C)NC(=O)[C@H](CC(C)C)NC(=O)[C@H](CCCNC(=N)N)NC(=O)[C@H](CCC(N)=O)NC(=O)[C@@H](NC(=O)[C@H](C)NC(=O)[C@@H]1CSSC[C@H](NC(=O)[C@H](CCCNC(=N)N)NC(=O)CNC(=O)CC[C@H](NC(=O)CCCCCCCCCCCCCCCCCCC(=O)O)C(=O)O)C(=O)N[C@@H](CC(N)=O)C(=O)N[C@@H]([C@@H](C)O)C(=O)N[C@@H](C)C(=O)N[C@@H]([C@@H](C)O)C(=O)N1)[C@@H](C)O)C(=O)N[C@@H](CC(C)C)C(=O)N1CCC[C@H]1C(=O)N1CCC[C@H]1C(=O)N[C@H](C(=O)N[C@@H](CC(N)=O)C(=O)N[C@H](C(=O)NCC(=O)N[C@@H](CO)C(=O)N[C@@H](CC(N)=O)C(=O)N[C@H](C(=O)N1CCC[C@H]1C(N)=O)[C@@H](C)O)C(C)C)[C@@H](C)O [Example 101, N-alpha-[(S)-4-Carboxy-4-(19-carboxynonadecanoylamino)butyryl]-Gly-[Arg1, Glu14, His17, Pro37]-pramlintide] ({C20 diacid-γGlu}-GRCNTATCATQRLAEFLHHSSNNFGPILPPTNVGSNTP-NH2; disulfide 3-8 (inferred); C-terminus assumed)	70	90	>45	>45
CC[C@H](C)[C@H](NC(=O)[C@@H]1CCCN1C(=O)CNC(=O)[C@H](Cc1ccccc1)NC(=O)[C@H](CC(N)=O)NC(=O)[C@H](CC(N)=O)NC(=O)[C@H](CO)NC(=O)[C@H](CO)NC(=O)[C@H](Cc1c[nH]cn1)NC(=O)[C@H](Cc1c[nH]cn1)NC(=O)[C@H](CC(C)C)NC(=O)[C@H](Cc1ccccc1)NC(=O)[C@H](CCC(=O)O)NC(=O)[C@H](C)NC(=O)[C@H](CC(C)C)NC(=O)[C@H](CCCNC(=N)N)NC(=O)[C@H](CCC(N)=O)NC(=O)[C@@H](NC(=O)[C@H](C)NC(=O)[C@@H]1CSSC[C@H](NC(=O)[C@H](CCCNC(=N)N)NC(=O)CC[C@H](NC(=O)CCCCCCCCCCCCCCCCCCC(=O)O)C(=O)O)C(=O)N[C@@H](CC(N)=O)C(=O)N[C@@H]([C@@H](C)O)C(=O)N[C@@H](C)C(=O)N[C@@H]([C@@H](C)O)C(=O)N1)[C@@H](C)O)C(=O)N[C@@H](CC(C)C)C(=O)N1CCC[C@H]1C(=O)N1CCC[C@H]1C(=O)N[C@H](C(=O)N[C@@H](CC(N)=O)C(=O)N[C@H](C(=O)NCC(=O)N[C@@H](CO)C(=O)N[C@@H](CC(N)=O)C(=O)N[C@H](C(=O)N1CCC[C@H]1C(N)=O)[C@@H](C)O)C(C)C)[C@@H](C)O [Example 96, N-alpha-[(S)-4-Carboxy-4-(19-carboxynonadecanoylamino)butyryl]-[Arg1, Glu14, His17, Pro37]-pramlintide] ({C20 diacid-γGlu}-RCNTATCATQRLAEFLHHSSNNFGPILPPTNVGSNTP-NH2; disulfide 2-7)	69	89	>45	>45
CC[C@H](C)[C@H](NC(=O)[C@@H]1CCCN1C(=O)CNC(=O)[C@H](Cc1ccccc1)NC(=O)[C@H](CC(N)=O)NC(=O)[C@H](CC(N)=O)NC(=O)[C@H](CO)NC(=O)[C@H](CO)NC(=O)[C@H](Cc1c[nH]cn1)NC(=O)[C@H](Cc1c[nH]cn1)NC(=O)[C@H](CC(C)C)NC(=O)[C@H](Cc1ccccc1)NC(=O)[C@H](CCC(=O)O)NC(=O)[C@H](C)NC(=O)[C@H](CC(C)C)NC(=O)[C@H](CCCNC(=N)N)NC(=O)[C@H](CCC(N)=O)NC(=O)[C@@H](NC(=O)[C@H](C)NC(=O)[C@@H]1CSSC[C@H](NC(=O)[C@H](CCCCN)NC(=O)CC[C@H](NC(=O)CCCCCCCCCCCCCCCCCCC(=O)O)C(=O)O)C(=O)N[C@@H](CC(N)=O)C(=O)N[C@@H]([C@@H](C)O)C(=O)N[C@@H](C)C(=O)N[C@@H]([C@@H](C)O)C(=O)N1)[C@@H](C)O)C(=O)N[C@@H](CC(C)C)C(=O)N1CCC[C@H]1C(=O)N1CCC[C@H]1C(=O)N[C@H](C(=O)N[C@@H](CC(N)=O)C(=O)N[C@H](C(=O)NCC(=O)N[C@@H](CO)C(=O)N[C@@H](CC(N)=O)C(=O)N[C@H](C(=O)N1CCC[C@H]1C(N)=O)[C@@H](C)O)C(C)C)[C@@H](C)O [Example 52, N-alpha-[(S)-4-Carboxy-4-(19-carboxynonadecanoylamino)butyryl]-[Glu14, His17, Pro37]-pramlintide] ({C20 diacid-γGlu}-KCNTATCATQRLAEFLHHSSNNFGPILPPTNVGSNTP-NH2; disulfide 2-7)	62	74	>45	>45
CC[C@H](C)[C@H](NC(=O)[C@@H]1CCCN1C(=O)CNC(=O)[C@H](Cc1ccccc1)NC(=O)[C@H](CC(N)=O)NC(=O)[C@H](CCC(N)=O)NC(=O)[C@H](CO)NC(=O)[C@H](CO)NC(=O)[C@H](Cc1c[nH]cn1)NC(=O)[C@H](CCCNC(=N)N)NC(=O)[C@H](CC(C)C)NC(=O)[C@H](Cc1ccccc1)NC(=O)[C@H](CCC(=O)O)NC(=O)[C@H](C)NC(=O)[C@H](CC(C)C)NC(=O)[C@H](CCCNC(=N)N)NC(=O)[C@H](CCC(N)=O)NC(=O)[C@@H](NC(=O)[C@H](C)NC(=O)[C@@H]1CSSC[C@H](NC(=O)[C@H](CCC(=O)O)NC(=O)[C@H](CCCNC(=N)N)NC(=O)[C@H](CCC(=O)O)NC(=O)CC[C@H](NC(=O)CCCCCCCCCCCCCCCCCCC(=O)O)C(=O)O)C(=O)N[C@@H](CC(N)=O)C(=O)N[C@@H]([C@@H](C)O)C(=O)N[C@@H](C)C(=O)N[C@@H]([C@@H](C)O)C(=O)N1)[C@@H](C)O)C(=O)N[C@@H](CC(C)C)C(=O)N1CCC[C@H]1C(=O)N1CCC[C@H]1C(=O)N[C@H](C(=O)N[C@@H](CC(N)=O)C(=O)N[C@H](C(=O)NCC(=O)N[C@@H](CO)C(=O)N[C@@H](CCC(N)=O)C(=O)N[C@H](C(=O)N1CCC[C@H]1C(N)=O)[C@@H](C)O)C(C)C)[C@@H](C)O [Example 162, N-alpha-[(S)-4-Carboxy-4-(19-carboxynonadecanoylamino)butyryl]-Glu-Arg-[Glu1, Glu14, Arg17, Gln21, Gln35, Pro37]-pramlintide] ({C20 diacid-γGlu}-ERECNTATCATQRLAEFLRHSSQNFGPILPPTNVGSQTP-NH2; disulfide 4-9)			>45	>45
CC[C@H](C)[C@H](NC(=O)[C@@H]1CCCN1C(=O)CNC(=O)[C@H](Cc1ccccc1)NC(=O)[C@H](CCC(N)=O)NC(=O)[C@H](CCC(N)=O)NC(=O)[C@H](CO)NC(=O)[C@H](CO)NC(=O)[C@H](Cc1c[nH]cn1)NC(=O)[C@H](CCCNC(=N)N)NC(=O)[C@H](CC(C)C)NC(=O)[C@H](Cc1ccccc1)NC(=O)[C@H](CCC(=O)O)NC(=O)[C@H](C)NC(=O)[C@H](CC(C)C)NC(=O)[C@H](CCCNC(=N)N)NC(=O)[C@H](CCC(N)=O)NC(=O)[C@@H](NC(=O)[C@H](C)NC(=O)[C@@H]1CSSC[C@H](NC(=O)[C@H](CCC(=O)O)NC(=O)[C@H](CCCNC(=N)N)NC(=O)[C@H](CCC(=O)O)NC(=O)CC[C@H](NC(=O)CCCCCCCCCCCCCCCCCCC(=O)O)C(=O)O)C(=O)N[C@@H](CC(N)=O)C(=O)N[C@@H]([C@@H](C)O)C(=O)N[C@@H](C)C(=O)N[C@@H]([C@@H](C)O)C(=O)N1)[C@@H](C)O)C(=O)N[C@@H](CC(C)C)C(=O)N1CCC[C@H]1C(=O)N1CCC[C@H]1C(=O)N[C@H](C(=O)N[C@@H](CCC(N)=O)C(=O)N[C@H](C(=O)NCC(=O)N[C@@H](CO)C(=O)N[C@@H](CCC(N)=O)C(=O)N[C@H](C(=O)N1CCC[C@H]1C(N)=O)[C@@H](C)O)C(C)C)[C@@H](C)O [Example 164, N-alpha-[(S)-4-Carboxy-4-(19-carboxynonadecanoylamino)butyryl]-Glu-Arg-[Glu1, Glu14, Arg17, Gln21, Gln22, Gln31, Gln35, Pro37]-pramlintide] ({C20 diacid-γGlu}-ERECNTATCATQRLAEFLRHSSQQFGPILPPTQVGSQTP-NH2; disulfide 4-9 (inferred); C-terminus assumed)			>45	>45
CC[C@H](C)[C@H](NC(=O)[C@@H]1CCCN1C(=O)CNC(=O)[C@H](Cc1ccccc1)NC(=O)[C@H](CC(N)=O)NC(=O)[C@H](CCC(N)=O)NC(=O)[C@H](CO)NC(=O)[C@H](CO)NC(=O)[C@H](Cc1c[nH]cn1)NC(=O)[C@H](Cc1c[nH]cn1)NC(=O)[C@H](CC(C)C)NC(=O)[C@H](Cc1ccccc1)NC(=O)[C@H](CCC(=O)O)NC(=O)[C@H](C)NC(=O)[C@H](CC(C)C)NC(=O)[C@H](CCCNC(=N)N)NC(=O)[C@H](CCC(N)=O)NC(=O)[C@@H](NC(=O)[C@H](C)NC(=O)[C@@H]1CSSC[C@H](NC(=O)CNC(=O)CC[C@H](NC(=O)CCCCCCCCCCCCCCCCCCC(=O)O)C(=O)O)C(=O)N[C@@H](CC(N)=O)C(=O)N[C@@H]([C@@H](C)O)C(=O)N[C@@H](C)C(=O)N[C@@H]([C@@H](C)O)C(=O)N1)[C@@H](C)O)C(=O)N[C@@H](CC(C)C)C(=O)N1CCC[C@H]1C(=O)N1CCC[C@H]1C(=O)N[C@H](C(=O)N[C@@H](CC(N)=O)C(=O)N[C@H](C(=O)NCC(=O)N[C@@H](CO)C(=O)N[C@@H](CCC(N)=O)C(=O)N[C@H](C(=O)N1CCC[C@H]1C(N)=O)[C@@H](C)O)C(C)C)[C@@H](C)O [Example 137, N-alpha-[(S)-4-Carboxy-4-(19-carboxynonadecanoylamino)butyryl]-[Gly1, Glu14, His17, Gln21, Gln35, Pro37]-pramlintide] ({C20 diacid-γGlu}-GCNTATCATQRLAEFLHHSSQNFGPILPPTNVGSQTP-NH2; disulfide 2-7)			29	

— patent publication US9029325B2, “Amylin analogues and pharmaceutical compositions thereof” (Novo Nordisk A/S, priority 2011, dated 2015)
